Laboratory results reported in patent US7947727B2, “Compounds” (GlaxoGroupLimited, priority 2006, dated 2011).

System: NFκB activity
Test: Glucocorticoid Mediated Transrepression of NFκB Activity (A549 ELAM promoter alkaline phosphatase reporter)
Format: cell-based
Settings: Human A549 lung epithelial cells, 3 ng/ml human recombinant TNFα, 16 hours, read-out: pEC50, transrepression of NFκB activity (converted)
From the text: Human A549 lung epithelial cells were engineered to contain a secreted placental alkaline phosphatase gene under the control of the distal region of the NFκB dependent ELAM promoter as previously described in Ray, K. P., Farrow, S., Daly, M., Talabot, F. and Searle, N. “Induction of the E-selectin promoter by interleukin 1 and tumour necrosis factor alpha, and inhibition by glucocorticoids” Biochemical Journal (1997) 328: 707-15.
Compounds were solvated and diluted in DMSO, and transferred directly into assay plates such that the final concentration of DMSO was 0.7%. Following the addition of cells (40K per well), plates were incubated for 1 hour prior to the addition of 3 ng/ml human recombinant TNFα. Following continued incubation for 16 hours, alkaline phosphatase activity was determined by measuring the change in optical density at 405 nm with time following the addition of 0.7 volumes of assay buffer (1 mg/ml p-nitrophenylphosphate dissolved in 1M diethanolamine, 0.28M NaCl, 0.5 mM MgCl2). Dose response curves were constructed from which EC50 values were estimated.

EC50	Structure (SMILES)
≤ 0.01 µM	CCN(CC(O)(CNc1cccc2c1cnn2-c1ccc(F)cc1)C(F)(F)F)C(=O)c1ccccc1F (single isomer, unassigned) [Example 7A, N-Ethyl-2-fluoro-N-[3,3,3-trifluoro-2-({[1-(4-fluorophenyl)-1H-indazol-4-yl]amino}methyl)-2-hydroxypropyl]benzamide]
≤ 0.01 µM	CCN(CC(O)(CNc1cccc2c1cnn2-c1ccc(F)cc1)C(F)(F)F)C(=O)c1ccccc1C (single isomer, unassigned) [Example 6A, N-Ethyl-2-methyl-N-[3,3,3-trifluoro-2-({[1-(4-fluorophenyl)-1H-indazol-4-yl]amino}methyl)-2-hydroxypropyl]benzamide]
≤ 0.01 µM	CCN(CC(O)(CNc1cccc2c1cnn2-c1ccc(F)cc1)C(F)(F)F)C(=O)c1ccccc1F (stereo not shown) [Example 7, N-Ethyl-2-fluoro-N-[3,3,3-trifluoro-2-({[1-(4-fluorophenyl)-1H-indazol-4-yl]amino}methyl)-2-hydroxypropyl]benzamide]
≤ 0.01 µM	CCN(CC(O)(CNc1cccc2c1cnn2-c1ccccc1)C(F)(F)F)C(=O)c1ccccc1F (single isomer, unassigned) [Example 3A, N-Ethyl-2-fluoro-N-(3,3,3-trifluoro-2-hydroxy-2-{[(1-phenyl-1H-indazol-4-yl)amino]methyl}propyl)benzamide]
